Experimental data as given in patent US7135467B2, “HIV integrase inhibitors” (priority 2003, dated 2006).

biological target: T1, HIV-integrase (recombinant integrase) (Human immunodeficiency virus type 1 group M subtype B, UniProt P12497); assay: HIV-Integrase Inhibition Activity (SPA bead strand-transfer assay); format: biochemical; details: recombinant integrase on biotin labeled substrate DNA/SPA beads, P33 labeled target DNA; read-out: Activity (IC50 against HIV-integrase)
T1 construct: Recombinant integrase (0.26 ng) was incubated with the beads
Description: To evaluate in-vitro activity against HIV-integrase, 5 pmole of biotin labeled substrate DNA was bound to 100 μg of Streptavidin coated PVT SPA beads (Amersham Pharmacia Biotech). Recombinant integrase (0.26 ng) was incubated with the beads for 90 min at 37° C. Unbound enzyme was removed by washing the complex followed by addition of inhibitors and 0.1 fmol of P33 labeled target DNA. The reaction was stopped by adding EDTA to a final concentration of 10 mM. Samples were counted in TopCountNXT (Packard) and the CPM was used as a measure of integration. The reaction condition was as described in A. Engelman and R. Craigie, J. Virol. 69, 5908–5911 (1995). The sequences of substrate and target DNA were described in Nucleic Acid Research 22, 1121–1122 (1994). Activity equal to A refers to a compound having IC50=0.003 to 0.10 μM while B and C denote compounds the following IC50=0.1 to 1.0 μM and IC50≧1.0 μM respectively.

`Cn1c(N2CCCCS2(=O)=O)nc(C(=O)NCc2ccc(F)cc2)c(O)c1=O` [Compound 1, N-[(4-fluorophenyl)methyl]-1,6-dihydro-5-hydroxy-1-methyl-6-oxo-2-(tetrahydro-1,1-dioxido-2H-1,2-thiazin-2-yl)-4-pyrimidinecarboxamide] was tested. Which IC50 did it give?
Its IC50 is 3 to 100 nM.

`Cn1c(N2CCCCS2(=O)=O)nc(C(=O)NCc2ccc(Cl)c(Cl)c2)c(O)c1=O` [Compound 2, N-[(3,4-dichlorophenyl)methyl]-1,6-dihydro-5-hydroxy-1-methyl-6-oxo-2-(tetrahydro-1,1-dioxido-2H-1,2-thiazin-2-yl)-4-pyrimidinecarboxamide] was tested. Which IC50 did it give?
The IC50 was 3 to 100 nM.

For `Cn1c(N2CCCCS2(=O)=O)nc(C(=O)NCc2cccc(F)c2)c(O)c1=O` [Compound 3, N-[(3-fluorophenyl)methyl]-1,6-dihydro-5-hydroxy-1-methyl-6-oxo-2-(tetrahydro-1,1-dioxido-2H-1,2-thiazin-2-yl)-4-pyrimidinecarboxamide], which IC50 is on record?
The IC50 was 100 to 1000 nM.

How did the IC50 turn out when `Cn1c(N2CCCCS2(=O)=O)nc(C(=O)NCc2ccc(Cl)cc2)c(O)c1=O` [Compound 4, N-[(4-chlorophenyl)methyl]-1,6-dihydro-5-hydroxy-1-methyl-6-oxo-2-(tetrahydro-1,1-dioxido-2H-1,2-thiazin-2-yl)-4-pyrimidinecarboxamide] was run?
Its IC50 is 3 to 100 nM.

Which IC50 does the source give for `Cn1c(N2CCCCS2(=O)=O)nc(C(=O)NCc2cccc(Cl)c2)c(O)c1=O` [Compound 5, N-[(3-chlorophenyl)methyl]-1,6-dihydro-5-hydroxy-1-methyl-6-oxo-2-(tetrahydro-1,1-dioxido-2H-1,2-thiazin-2-yl)-4-pyrimidinecarboxamide] here?
Its IC50 is 3 to 100 nM.

For `Cn1c(N2CCCCS2(=O)=O)nc(C(=O)NCCCc2ccc(F)cc2)c(O)c1=O` [Compound 6, N-[3-(4-fluorophenyl)propyl]-1,6-dihydro-5-hydroxy-1-methyl-6-oxo-2-(tetrahydro-1,1-dioxido-2H-1,2-thiazin-2-yl)-4-pyrimidinecarboxamide], which IC50 is on record?
Its IC50 is 3 to 100 nM.

`Cn1c(N2CCCCS2(=O)=O)nc(C(=O)NCCCc2ccc(Cl)c(Cl)c2)c(O)c1=O` [Compound 7, N-[3-(3,4-dichlorophenyl)propyl]-1,6-dihydro-5-hydroxy-1-methyl-6-oxo-2-(tetrahydro-1,1-dioxido-2H-1,2-thiazin-2-yl)-4-pyrimidinecarboxamide] was tested. Which IC50 did it give?
Its IC50 is at least 1000 nM.

With `Cc1ccc(CNC(=O)c2nc(N3CCCCS3(=O)=O)n(C)c(=O)c2O)cc1` [Compound 8, 1,6-dihydro-5-hydroxy-1-methyl-N-[(4-methylphenyl)methyl]-6-oxo-2-(tetrahydro-1,1-dioxido-2H-1,2-thiazin-2-yl)-4-pyrimidinecarboxamide] as the compound, how does the IC50 read?
Its IC50 is 3 to 100 nM.

Which IC50 does the source give for `Cc1cccc(CNC(=O)c2nc(N3CCCCS3(=O)=O)n(C)c(=O)c2O)c1` [Compound 9, 1,6-dihydro-5-hydroxy-1-methyl-N-[(3-methylphenyl)methyl]-6-oxo-2-(tetrahydro-1,1-dioxido-2H-1,2-thiazin-2-yl)-4-pyrimidinecarboxamide] here?
The IC50 was 3 to 100 nM.

With `COc1ccc(CNC(=O)c2nc(N3CCCCS3(=O)=O)n(C)c(=O)c2O)cc1` [Compound 10, 1,6-dihydro-5-hydroxy-N-[(4-methoxyphenyl)methyl]-1-methyl-6-oxo-2-(tetrahydro-1,1-dioxido-2H-1,2-thiazin-2-yl)-4-pyrimidinecarboxamide] as the compound, how does the IC50 read?
Its IC50 is 3 to 100 nM.

How did the IC50 turn out when `COc1cccc(CNC(=O)c2nc(N3CCCCS3(=O)=O)n(C)c(=O)c2O)c1` [Compound 11, 1,6-dihydro-5-hydroxy-N-[(3-methoxyphenyl)methyl]-1-methyl-6-oxo-2-(tetrahydro-1,1-dioxido-2H-1,2-thiazin-2-yl)-4-pyrimidinecarboxamide] was run?
The IC50 was 100 to 1000 nM.

With `Cn1c(N2CCCCS2(=O)=O)nc(C(=O)NCc2cc(Cl)cc(Cl)c2)c(O)c1=O` [Compound 12, N-[(3,5-dichlorophenyl)methyl]-1,6-dihydro-5-hydroxy-1-methyl-6-oxo-2-(tetrahydro-1,1-dioxido-2H-1,2-thiazin-2-yl)-4-pyrimidinecarboxamide] as the compound, how does the IC50 read?
The IC50 was 3 to 100 nM.
